In patent publication US20250170073A1, “SYNERGISTIC COMPOSITIONS FOR IMPROVING MINERAL BIOACCESSIBILITY” (priority 2022, published 2025) one finds mineral bioaccessibility data, which are given here for one compound.

The assay is described as follows: Simulated digestion model, mineral bioaccessibility. The format is in vitro ADME. The conditions noted are these: in the presence of lutein. The procedure: In vitro simulated gastrointestinal digestion was used for assessing mineral bioaccessibility in presence of the tested compounds.
Mineral bioaccessibility buffer (MBB) was prepared (NaCl; 6.6 mg/mL, MgSO4; 0.12 mg/mL, Glucose; 0.9 mg/mL, L-Ascorbic acid; 0.09 mg/mL, HEPES; 8.6 mg/mL at pH 6.5) with Calcium, Iron and Zinc (tricalcium phosphate; 1314.6 μg/mL, Calcium D-pantothenate; 28.5 μg/mL, Calcium Carbonate; 13.0 μg/mL, Iron Sulphate heptahydrate; 3.8 μg/mL, Iron Chloride; 12.5 μg/mL, Zinc Sulphate heptahydrate; 17.4 μg/mL, Zinc Chloride; 2.2 μg/mL) to achieve a total mineral content (Calcium; 520 μg/mL, Iron; 5.0 μg/mL, Zinc; 5.0 μg/mL), as well as soluble mineral content similar to that of infant formula. […]
The transit of CCP, Lutein, 2-PA and non-digestible Gos/Fos through the gastro-intestinal tract was mimicked using a three-phase dialysis model that was adapted from literature [Venema, 2020]. […] Calcium, Iron and Zinc in the dialysate were analyzed with ICP-OES spectrometry.
The average (n=3) total amount of Calcium, Iron and Zinc measured in the dialysate was considered bioaccessible. […]

As to `CC1=C[C@H](O)CC(C)(C)[C@H]1/C=C/C(C)=C/C=C/C(C)=C/C=C/C=C(C)/C=C/C=C(C)/C=C/C1=C(C)C[C@@H](O)CC1(C)C` [lutein], the mineral bioaccessibility result was “significantly increased”.
